Reference: patent US4803208A, “Opiate agonists and antagonists” (Sloan-Kettering Institute For Cancer Research, priority 1985, dated 1989)
Values joined by “and” are separate entries in the source; they are usually repeats but may differ in a detail not shown here. Equal values may be shown once. “Also recorded” adds a separate entry of the source.

Legend:
[1] = system: high affinity, or mu1, binding sites; settings: Pasternak et al.; Zhang and Pasternak; cited from earlier work
[2] = system: rats; assay type: in vivo, rat; settings: 50 mg/kg intravenously; for Amounts eaten, individual animals / Amounts eaten, Mean ± SEM: 1 hour free access to food, 24 hours after drug; for Amounts eaten, Mean ± SEM: saline 4.78 ± 0.42, significant at the p 0.05 level (ANOVA)
Description: They were then food deprived for 24 hours but allowed free access to water. Five rats received saline, four received naloxone and three naloxazone. […] The animals were then given free access to food for 1 hour and their weight gain noted. Thus, eating was measured 24 hours after the administration of the drugs and after 24 hours of food deprivation.

[3] = system: growth hormone release; assay: Growth hormone release in vivo; settings: for effect on growth hormone release (in words): in vivo
[4] = system: opiate receptors; assay: Irreversible opiate receptor binding/blocking (general statements); settings: high doses
Description: (§1) In brief, brain membranes were prepared and triplicate samples incubated with [^3 H] labelled ligands and designated drugs for 30 minutes at 25° C., followed by filtration over Whatman GF/B filters. […] Specific binding is defined as the difference in binding in the presence and absence of levallorphan (1 uM). […] Each tissue wash included incubation for 10 min. at 37° C., centrifugation and resuspension. Irreversibility experiments included four washes before binding assays were performed, unless otherwise stated.

[5] = Reaction of hydrazones to azines in solution; settings: acidic aqueous solutions; absolute ethanol or water/acetic acid (1%), 15 min
[6] = system: opiate receptors; assay type: binding, rat
Description: as §1
To determine which compounds did irreversibly bind to the receptor, membranes were incubated with the various drugs (2 μM) and then the free and reversibly bound drug washed away (Table 2).
Rat brain membranes were prepared and incubated with the above drugs (2 μM) for 30 min at 25° C. and the tissue was then washed four times as described in the text to remove reversibly bound material. The results represent the means ±s.e.m. of three separate experiments utilizing [^3 H]D-ala^2 -D-leu^5 -enkephal in (1 nM) and [^3 H]dihydromorphine (0.8 nM). […] After 15 min the solution was added to tissue.

[7] = system: prolactin release; assay: Prolactin release in vivo
[8] = system: rats; settings: cited from earlier work
[9] = system: growth hormone release; settings: cited from earlier work
[10] = system: prolactin release; settings: cited from earlier work
[11] = currently available agents; cited from earlier work

Row | SMILES | blocking opiate analgesia / effect on opiate-induced lethality (in words) [1] | effect on feeding (in words) [2] | Amounts eaten, individual animals [2] | Amounts eaten, Mean ± SEM [2] | effect on basal levels of growth hormone, naloxazone (in words) ([3]; basal levels) | effect on growth hormone release (in words) [3] | dose for irreversible blockade of opiate receptor binding (naloxazone) [4] | stability in solution: reaction to azine (in words) [5] | irreversible inhibition of [^3 H]D-ala^2 -D-leu^5 -enkephalin binding (in words) ([6]; 2 μM) | Change in Binding (Percent), [^3 H]D-ala^2 -D-leu^5 -enkephalin ([6]; compound 2 μM, 30 min 25° C., four washes, ligand 1 nM, mean ± s.e.m. of three experiments) | effect on basal levels of prolactin, naloxazone (in words) ([7]; basal levels) | depression of morphine-induced release of prolactin ([7]; in vivo) | effect on prolactin release (in words) ([7]; in vivo) | suppression of eating behavior (known) [8] | effect on basal levels of growth hormone, naloxone (in words) [9] | effect on basal levels of prolactin, naloxone (in words) [10] | half-life (in words) [11]
1 | C=CCN1CCC23c4c5ccc(O)c4OC2C(=NN)CCC3(O)C1C5 (stereo not shown) [Naloxazone, naloxazone] | blocking opiate analgesia with little effect on other classes of binding sites or opiate-induced lethality | significant effect as an appetite suppressant | 3.3 grams and 2.4 grams and 3.5 grams | 3.07 ± 0.34 grams | significant reduction in the basal levels of the drugs | actually increased; also recorded: without effecting growth hormone release elicited by morphine | 2 µM | no azine formation could be detected | neither naloxazone nor oxymorphazone irreversibly inhibited the binding | +15 ± 5% | significant reduction in the basal levels of the drugs | over 80% | selectively lowering prolactin release | – | – | – | –
2 | C=CCN1CC[C@]23c4c5ccc(O)c4O[C@H]2C(=O)CC[C@@]3(O)[C@H]1C5 [Naloxone, naloxone] | – | inability of naloxone to effect feeding behavior | 4.1 grams and 5.3 grams and 4.4 grams and 3.7 grams | 4.38 ± 0.34 grams | – | inhibits morphine's release of both hormones | – | – | – | – | – | – | inhibits morphine's release of both hormones | effectively suppress eating behavior in rats | lowering of the basal levels of prolactin and growth hormone | lowering of the basal levels of prolactin and growth hormone | short half-life
